Measured values reported in patent US9221826B2, “Pyrrolopyridazine JAK3 inhibitors and their use for the treatment of inflammatory and autoimmune diseases” (Bristol-Myers Squibb Company, priority 2011, dated 2015).

Tests used:
Type in all cases: biochemical
JAK3 enzyme = molecular target: T1, JAK3 enzyme (Homo sapiens, UniProt P52333); experiment: JAK3 Kinase Assay Protocol (Filter); conditions: 33P γ-ATP, 8 μM ATP, CSKtide substrate, read-out: LLE_JAK3_FB (IC50)
T1 sequence (P52333 1-1124): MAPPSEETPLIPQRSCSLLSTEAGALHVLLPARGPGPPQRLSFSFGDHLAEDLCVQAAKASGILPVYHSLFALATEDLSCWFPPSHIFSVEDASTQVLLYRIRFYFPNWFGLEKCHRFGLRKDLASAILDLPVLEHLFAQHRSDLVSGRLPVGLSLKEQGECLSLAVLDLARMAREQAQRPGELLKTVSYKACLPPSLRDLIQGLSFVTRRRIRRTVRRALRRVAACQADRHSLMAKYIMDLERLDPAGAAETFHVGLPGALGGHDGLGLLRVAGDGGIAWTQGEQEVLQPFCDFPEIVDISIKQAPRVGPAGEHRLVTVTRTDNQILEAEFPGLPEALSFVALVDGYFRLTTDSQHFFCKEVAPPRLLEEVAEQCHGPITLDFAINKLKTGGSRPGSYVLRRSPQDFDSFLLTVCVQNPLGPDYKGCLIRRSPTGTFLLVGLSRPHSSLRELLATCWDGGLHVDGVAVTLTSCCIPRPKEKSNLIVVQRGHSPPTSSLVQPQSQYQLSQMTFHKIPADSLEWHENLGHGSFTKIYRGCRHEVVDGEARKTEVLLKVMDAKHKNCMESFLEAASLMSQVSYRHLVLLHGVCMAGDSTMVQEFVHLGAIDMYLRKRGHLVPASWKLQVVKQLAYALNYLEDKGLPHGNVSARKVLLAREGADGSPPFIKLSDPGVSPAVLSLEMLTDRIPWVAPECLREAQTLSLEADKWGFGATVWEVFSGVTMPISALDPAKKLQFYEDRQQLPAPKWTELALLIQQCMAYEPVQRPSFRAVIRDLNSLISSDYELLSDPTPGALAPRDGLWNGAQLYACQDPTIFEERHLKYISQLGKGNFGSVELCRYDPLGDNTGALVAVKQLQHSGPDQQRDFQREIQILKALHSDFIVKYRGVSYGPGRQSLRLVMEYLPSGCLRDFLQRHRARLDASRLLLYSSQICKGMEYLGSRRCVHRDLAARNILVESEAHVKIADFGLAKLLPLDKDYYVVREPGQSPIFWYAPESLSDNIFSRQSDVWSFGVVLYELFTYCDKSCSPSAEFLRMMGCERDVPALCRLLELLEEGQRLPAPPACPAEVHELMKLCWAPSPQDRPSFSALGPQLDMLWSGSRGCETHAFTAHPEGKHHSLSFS
Method: Kinase reactions consisted of 5 ng of JAK3 enzyme, 30 uM CSKtide substrate, 0.2 μCi ^33P γ-ATP, 8 μM ATP in 30 μl kinase buffer (50 mM Hepes, pH 8.0, 10 mM MgCl2, 1 mM EGTA, 2 mM DTT). Reactions were incubated for 30 minutes at room temperature and stopped by the addition of cold trichloroacetic acid (TCA) to a final concentration of 15%. TCA precipitates were collected onto 384 well phosphocellulose filters (Millipore) using a Platemate to transfer the reaction mixture, washed on an EMBLA plate washer and the filters were quantitated using a TopCount 384-well liquid scintillation counter. […] Compounds were dissolved at 10 mM in dimethylsulfoxide (DMSO) and evaluated at six concentrations, each in triplicate. The final concentration of DMSO in the assay equaled 2%. IC50 values were derived by non-linear regression analysis.

GST-JAK1 enzyme = GST-JAK1 enzyme (Homo sapiens, UniProt P23458); experiment: JAK1 Kinase Assay Protocol; conditions: Caliper LabChip assay, ATP 100 μM, fluoresceinated peptide; read-out: LLE_JAK1 (IC50)
Method: The assay reactions were performed in U-bottom 384-well plates. The final assay volume was 30 μl prepared from 15 μl additions of enzyme and substrates (fluoresceinated peptide and ATP) and test compounds in assay buffer (20 mM HEPES pH 7.4, 10 mM MgCl2, 25 mM beta-glycerol phosphate, 0.015% Brij35 and 4 mM DTT). The reaction was initiated by the combination of GST-JAK1 enzyme with substrates and test compounds. The reactions were incubated at room temperature for 3 hours and terminated by adding 60 μl of 35 mM EDTA to each sample. Each reaction mixture was analyzed on the Caliper LabChip 3000 (Caliper, Hopkinton, Mass.) by electrophoretic separation of the fluorescent substrate and phosphorylated product. […] The final concentration of reagents in the assays was: ATP, 100 μM; fluoresceinated peptide, 1.5 μM; GST-JAK1, 12.5 nM; and DMSO, 1.6%. […] Compounds were dissolved at 10 mM in dimethylsulfoxide (DMSO) and evaluated at eleven concentrations. IC50 values were derived by non-linear regression analysis.

GST-JAK3 enzyme = molecular target: T2, GST-JAK3 enzyme (Homo sapiens, UniProt P52333); experiment: JAK3 Kinase Assay Protocol (Caliper); conditions: Caliper LabChip assay, ATP 8 μM, fluoresceinated peptide; read-out: LLE_JAK3_CAL (IC50)
T2 sequence (P52333 1-1124): T1 sequence (P52333 1-1124)
Method: The assay reactions were performed in U-bottom 384-well plates. […] The reaction was initiated by the combination of GST-JAK3 enzyme with substrates and test compounds. The reactions were incubated at room temperature for 3 hours and terminated by adding 60 μl of 35 mM EDTA to each sample. Each reaction mixture was analyzed on the Caliper LabChip 3000 (Caliper, Hopkinton, Mass.) by electrophoretic separation of the fluorescent substrate and phosphorylated product. […] Compounds were dissolved at 10 mM in dimethylsulfoxide (DMSO) and evaluated at eleven concentrations. IC50 values were derived by non-linear regression analysis.

GST-JAK1 enzyme, sequence (P23458 whole entry): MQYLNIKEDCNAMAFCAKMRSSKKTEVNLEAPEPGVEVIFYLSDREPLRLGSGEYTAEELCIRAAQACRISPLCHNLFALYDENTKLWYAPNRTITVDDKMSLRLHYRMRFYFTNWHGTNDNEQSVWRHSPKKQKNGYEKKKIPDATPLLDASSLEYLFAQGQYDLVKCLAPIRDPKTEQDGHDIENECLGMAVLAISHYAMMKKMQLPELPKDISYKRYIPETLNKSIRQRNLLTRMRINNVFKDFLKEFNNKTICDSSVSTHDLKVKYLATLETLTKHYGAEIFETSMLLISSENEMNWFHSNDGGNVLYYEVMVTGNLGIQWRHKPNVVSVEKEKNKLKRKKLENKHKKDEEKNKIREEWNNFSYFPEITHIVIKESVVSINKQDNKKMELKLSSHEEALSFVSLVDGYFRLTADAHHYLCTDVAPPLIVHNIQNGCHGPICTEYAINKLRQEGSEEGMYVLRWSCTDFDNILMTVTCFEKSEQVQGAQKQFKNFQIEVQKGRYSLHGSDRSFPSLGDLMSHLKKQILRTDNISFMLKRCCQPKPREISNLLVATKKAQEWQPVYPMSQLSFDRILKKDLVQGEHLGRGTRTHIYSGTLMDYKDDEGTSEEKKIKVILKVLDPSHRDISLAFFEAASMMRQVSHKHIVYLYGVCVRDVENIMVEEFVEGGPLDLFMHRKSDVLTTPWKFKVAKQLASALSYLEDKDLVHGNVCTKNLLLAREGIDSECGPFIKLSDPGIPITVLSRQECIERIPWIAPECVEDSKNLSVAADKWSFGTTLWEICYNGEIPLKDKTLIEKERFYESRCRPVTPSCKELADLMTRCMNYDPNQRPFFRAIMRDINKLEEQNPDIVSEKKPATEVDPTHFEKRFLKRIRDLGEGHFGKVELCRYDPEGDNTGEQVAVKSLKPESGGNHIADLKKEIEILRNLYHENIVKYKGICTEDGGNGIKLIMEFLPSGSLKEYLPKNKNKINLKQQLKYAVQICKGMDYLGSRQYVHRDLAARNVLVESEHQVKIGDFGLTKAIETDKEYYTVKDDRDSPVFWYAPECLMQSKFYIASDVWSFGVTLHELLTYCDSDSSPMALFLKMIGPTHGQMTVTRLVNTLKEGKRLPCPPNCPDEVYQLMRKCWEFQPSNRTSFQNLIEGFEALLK

| IC50 (JAK3 enzyme) [nM] | IC50 (GST-JAK1 enzyme) [nM] | IC50 (GST-JAK3 enzyme) [nM] | Structure (SMILES) |
| --- | --- | --- | --- |
| 8.7 | 40.1 | 8 | CC1CCN(c2cc3c(N[C@H](C)C(C)(C)F)c(C(N)=O)cnn3c2)C1=O (mixture of isomers) [Example 134] |
| 49.2 | 106 | 96.4 | CC(Nc1c(C(N)=O)cnn2cc(-c3ccncc3)cc12)c1cc(F)ccc1F (racemic) [Example 181, (+/−)-4-((1-(2,5-difluorophenyl)ethyl)amino)-6-(4-pyridinyl)pyrrolo[1,2-b]pyridazine-3-carboxamide] |
| 1 | 3 | 1.3 | C[C@@H](Nc1c(C(N)=O)cnn2cc(-c3cccc(C(O)CO)c3)cc12)C1CC1 (mixture of isomers) [Example 187, (R)-4-(1-cyclopropylethylamino)-6-(3-(1,2-dihydroxyethyl)phenyl)pyrrolo[1,2-b]-pyridazine-3-carboxamide] |
| 1.8 | 2.7 | – | CC(Nc1c(C(N)=O)cnn2cc(-c3ccccc3)cc12)C(C)(C)C(N)=O (racemic) [Example 193, (+/−)-4-(4-amino-3,3-dimethyl-4-oxobutan-2-ylamino)-6-phenylpyrrolo[1,2-b]-pyridazine-3-carboxamide] |
| 0.5 | 3.6 | 0.8 | COc1ccc(-c2cc3c(N[C@H](C)C(O)C4CC4)c(C(N)=O)cnn3c2)cn1 (single isomer, unassigned; isomer a) [Example 210] |
| 0.9 | 43 | 3.7 | C[C@@H](Nc1c(C(N)=O)cnn2cc(N3CCCC3=O)cc12)C(C)(C)C [Example 2] |
| 48.4 | 193 | 24 | C[C@@H](Nc1c(C(N)=O)cnn2cc(-n3ccccc3=O)cc12)C(C)(C)C [Example 5] |
| 0.2 | 7 | 0.7 | CCOC(=O)Nc1cc2c(N[C@H](C)C(C)(C)C)c(C(N)=O)cnn2c1 [Example 9] |
| 21.6 | 141 | 22.4 | C[C@@H](Nc1c(C(N)=O)cnn2cc(N3CCCCS3(=O)=O)cc12)C(C)(C)C [Example 17] |
| 109 | 570 | 105 | CC(C)[C@H]1COC(=O)N1c1cc2c(N[C@H](C)C(C)(C)C)c(C(N)=O)cnn2c1 [Example 18] |
| 0.7 | 34 | 2.8 | C[C@@H](Nc1c(C(N)=O)cnn2cc(N3CCOC3=O)cc12)C(C)(C)C [Example 22] |
| 5.9 | 86 | 4.7 | C[C@@H](Nc1c(C(N)=O)cnn2cc(N3CCN(C)C3=O)cc12)C(C)(C)C [Example 25] |
| 1.2 | 46.1 | 5.3 | C[C@@H](Nc1c(C(N)=O)cnn2cc(N3CCNC3=O)cc12)C(C)(C)C [Example 29] |
| 18.8 | 3.8 | 0.6 | C[C@@H](Nc1c(C(N)=O)cnn2cc(-c3ccc(F)cc3)cc12)C(C)(C)F [Example 37] |
| 1.2 | 8.8 | 2.5 | C[C@@H](Nc1c(C(N)=O)cnn2cc(-c3ccn[nH]3)cc12)C(C)(C)F [Example 43] |
| 0.9 | 5.2 | 1.4 | C[C@@H](Nc1c(C(N)=O)cnn2cc(-c3cccc(C#N)c3)cc12)C(C)(C)F [Example 53, (R)-6-(3-cyanophenyl)-4-(3-fluoro-3-methylbutan-2-ylamino)pyrrolo[1,2-b]pyridazine-3-carboxamide] |
| 0.7 | 4 | 1.8 | C[C@@H](N)c1cccc(-c2cc3c(N[C@H](C)C(C)(C)F)c(C(N)=O)cnn3c2)c1 [Example 62] |
| 0.7 | – | 1 | C[C@@H](Nc1c(C(N)=O)cnn2cc(-c3cccc(CN)c3)cc12)C(C)(C)F [Example 68, 6-(3-(aminomethyl)phenyl)-4-(((1R)-2-fluoro-1,2-dimethylpropyl)amino) pyrrolo[1,2-b]pyridazine-3-carboxamide] |
| 18.6 | 260 | 66.7 | NC(=O)c1cnn2cc(-c3ccccc3)cc2c1N[C@H](C(N)=O)c1ccccc1 [Example 125] |
| 26 | 160 | 23.4 | CSc1nnc(-c2cc3c(N[C@H](C)C4CC4)c(C(N)=O)cnn3c2)o1 [Example 127, (R)-4-(1-cyclopropylethylamino)-6-(5-(methylthio)-1,3,4-oxadiazol-2-yl)pyrrolo[1,2-b]pyridazine-3-carboxamide] |
| 11 | 61.1 | 8.4 | C[C@@H](Nc1c(C(N)=O)cnn2cc(N3CCOCC3=O)cc12)C(C)(C)F [Example 129] |
| 11.3 | 83.1 | 4.8 | C[C@@H](Nc1c(C(N)=O)cnn2cc(N3CCCS3(=O)=O)cc12)C(C)(C)F [Example 131] |
| 15.1 | 26.5 | 11.1 | CC(C)Nc1c(C(N)=O)cnn2cc(-c3ccc(C#N)cc3)cc12 [Example 146] |
| – | – | 23.8 | CC(C)Nc1c(C(N)=O)cnn2cc(-c3ccc4c(c3)OCO4)cc12 [Example 149] |
| 178 | 402 | 223 | CC(C)Nc1c(C(N)=O)cnn2cc(-c3ccnc4ccccc34)cc12 [Example 153] |
| 35.1 | 149 | 56.3 | COc1cc(-c2cc3c(NC(C)C)c(C(N)=O)cnn3c2)c(F)cn1 [Example 154] |
| – | 0.6 | 1.2 | COc1ccc(-c2cc3c(N[C@H](C)C(C)(C)c4nc(C(N)=O)co4)c(C(N)=O)cnn3c2)cc1 [Example 219] |
| – | 0.4 | 0.9 | C[C@@H](Nc1c(C(N)=O)cnn2cc(-c3ccc(C#N)cc3)cc12)C(C)(C)c1nc(C(N)=O)co1 [Example 222] |
| – | 0.5 | 0.3 | CC[C@@H](c1nc(C(N)=O)co1)[C@@H](C)Nc1c(C(N)=O)cnn2cc(-c3ccc(OC)nc3)cc12 [Example 224, 2-((2R,3R)-2-((3-carbamoyl-6-(6-methoxypyridin-3-yl)pyrrolo[1,2-b]pyridazin-4-yl)amino)pentan-3-yl)oxazole-4-carboxamide] |
| – | 2200 | 880 | C[C@@H](O)[C@@H](COP(=O)(O)O)Nc1c(C(N)=O)cnn2cc(-c3ccccc3)cc12 [Example 240, (2R,3R)-2-((3-carbamoyl-6-phenylpyrrolo[1,2-b]pyridazin-4-yl)amino)-3-hydroxybutyl dihydrogen phosphate, disodium] |
